Type in all cases: in vivo
The subject of data set [1] is Beet Armyworm (Spodoptera exigua, LAPHEG). As to the kind of experiment: Bioassays on Beet Armyworm (BAW), 128-well diet tray assay. Particulars: Spodoptera exigua. The method in brief: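 Percent larval mortality, averaged across eight wells, scored after five to seven days at 25° C. under 14:10 light-dark. Each well held one to five second instars feeding on diet dosed at 50 μg/cm^2 with compound from 90:10 acetone-water, solvent dried off.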

The test system of data set [2] is Cabbage Looper (Trichoplusia ni, TRIPNI). Nature of the data set: Bioassays on Cabbage Looper (CL), 128-well diet tray assay. As to conditions: Trichoplusia ni. The method in brief:
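Diet tray, 2nd instar, 1–5 larvae/well; 50 μg/cm^2 compound surface-applied (acetone:water 90:10), dried; 8 wells/treatment; 25° C, 14:10 L:D, 5–7 d; % mortality, mean of 8 wells.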

The test system of data set [3] is Yellow Fever Mosquito (Aedes aegypti, AEDSAE). As to conditions: for YFM rating: Table ABC / ABC-DP rating. The gist of the method:
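Mortality after 3 days at room temperature is the read-out, scored well by well and converted to a rating. Test molecules came from 4000 ppm stocks in DMSO, further diluted in 90:10 water/acetone, and were exposed to roughly 1-day-old larvae suspended in liver-powder water.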

Setting [4] is: Table ABC: Biological Results, species BAW, read-out: BAW.
Where [5] appears, read: Table ABC: Biological Results, species CL, read-out: CL.
Where [6] appears, read: Table ABC: Biological Results, species YFM.
Setting [7] is: Beet Armyworm, Table ABC / ABC-DP rating, read-out: BAW rating.
Where [8] appears, read: Cabbage Looper, Table ABC / ABC-DP rating, read-out: CL rating.
The mark [9] stands for this setting: Beet Armyworm, rating class, read-out: BAW.
The mark [10] stands for this setting: Cabbage Looper, rating class, read-out: CL.
Where [11] appears, read: Yellow Fever Mosquito, rating class.

Like-named read-outs stand apart in the source and are kept apart here.

Consider `CS(=O)(=O)CC(=O)Nc1c(F)ccc(NC(=O)c2cc(NC(=O)[C@H]3[C@H](c4ccc(F)c(C(F)(F)F)c4)C3(Cl)Cl)ccc2Cl)c1F` [F1299, 2-Chloro-5-((1R,3R)-2,2-dichloro-3-(4-fluoro-3-(trifluoromethyl)phenyl)cyclopropane-1-carboxamido)-N-(2,4-difluoro-3-(2-(methylsulfonyl)acetamido)phenyl)benzamide], for which the pest or weed control at 50 µg/cm2 in data set [1] (setting [4]) and in data set [2] (setting [5]) was 50 to 100% each time. Besides, the YFM entry in data set [3] (setting [6]) is given as “A (80–100)”.
Regarding `O=C(NCCCNC(=O)C(F)(F)F)c1cc(NC(=O)[C@H]2[C@H](c3cc(Cl)cc(Cl)c3)C2(Cl)Cl)ccc1Cl` (relative stereo) [F2094, trans-2-Chloro-5-(2,2-dichloro-3-(3,5-dichlorophenyl)cyclopropane-1-carboxamido)-N-(3-(2,2,2-trifluoroacetamido)propyl)benzamide], the pest or weed control at 50 µg/cm2 in data set [1] (setting [7]) and in data set [2] (setting [8]) was 50 to 100% each time. For the same compound, in data set [3] (Yellow Fever Mosquito), the YFM rating result is recorded as “B (More than 0 – Less than 80)”.
With `Nc1c(F)ccc(NC(=O)c2cc(NC(=O)[C@H]3[C@H](c4cccc(Cl)c4)C3(Cl)Cl)ccc2Cl)c1F` (relative stereo) [F1595, trans-N-(3-Amino-2,4-difluorophenyl)-2-chloro-5-(2,2-dichloro-3-(3-chlorophenyl)cyclopropane-1-carboxamido)benzamide], the pest or weed control at 50 µg/cm2 in data set [1] (setting [9]) and in data set [2] (setting [10]) was 50 to 100% in each case. Besides, in data set [3] (setting [11]), the YFM entry is given as “A (80–100)”.
For the compound `O=C(Nc1c(F)ccc(NC(=O)c2cc(NC(=O)[C@H]3[C@H](c4ccc(Cl)c(Cl)c4)C3(Cl)Cl)ccc2Cl)c1F)c1ccco1` [F1416, N-(3-(2-Chloro-5-((1R,3R)-2,2-dichloro-3-(3,4-dichlorophenyl)cyclopropane-1-carboxamido)benzamido)-2,6-difluorophenyl)furan-2-carboxamide], the pest or weed control at 50 µg/cm2 in data set [1] (setting [9]) and in data set [2] (setting [10]) was 50 to 100% in each case. Moreover, the YFM result in data set [3] (setting [11]) is given as “A (80–100)”.
On to `CC(=O)Nc1ccc(NC(=O)c2cc(NC(=O)[C@H]3[C@H](c4ccc(Cl)c(Cl)c4)C3(Cl)Cl)ccc2Cl)c(C)c1` (relative stereo) [F1059, trans-N-(4-Acetamido-2-methylphenyl)-2-chloro-5-(2,2-dichloro-3-(3,4-dichlorophenyl)cyclopropane-1-carboxamido)benzamide], for which the pest or weed control at 50 µg/cm2 in data set [1] (setting [4]) and in data set [2] (setting [5]) was 50 to 100% in each case. The YFM entry in data set [3] (setting [6]) was “A (80–100)”.
Regarding `CCOC(C)C(=O)Nc1c(F)ccc(NC(=O)c2cc(NC(=O)[C@H]3[C@H](c4ccc(Cl)c(C(F)(F)F)c4)C3(Cl)Cl)ccc2Cl)c1F` (stereo partly drawn) [F1660, 2-Chloro-5-((1R,3R)-2,2-dichloro-3-(4-chloro-3-(trifluoromethyl)phenyl)cyclopropane-1-carboxamido)-N-(3-(2-ethoxypropanamido)-2,4-difluorophenyl)benzamide], the pest or weed control at 50 µg/cm2 in data set [1] (setting [9]) and in data set [2] (setting [10]) was 50 to 100% each time. Besides, the YFM result in data set [3] (setting [11]) was “A (80–100)”.
Regarding `O=C(NNc1ccc(OC(F)(F)C(F)(F)F)cc1)c1cc(NC(=O)[C@H]2[C@H](c3cc(Cl)cc(Cl)c3)C2(Cl)Cl)ccc1Cl` (relative stereo) [F2565, trans-2,2-Dichloro-N-(4-chloro-3-(2-(4-(perfluoroethoxy)phenyl)hydrazine-1-carbonyl)phenyl)-3-(3,5-dichlorophenyl)cyclopropane-1-carboxamide], the mortality (commonly the percentage killed) at 50 µg/cm2 in data set [1] (168 h, second instar larvae, 50 μg/cm^2 of test molecule on artificial diet, 25° C., five to seven days, average of eight wells, read-out: BAW % Control (or Mortality) rating) lay in the range of 50 to 100%; in data set [2] (168 h, second instar larvae, 50 μg/cm^2 of test molecule on artificial diet, 25° C., five to seven days, average of eight wells, read-out: CL % Control (or Mortality) rating) it was 50 to 100%. In addition, the pest or weed control at 50 µg/cm2 in data set [1] (setting [7]) and in data set [2] (setting [8]) was 50 to 100% in each case. Besides, the “YFM % Control (or Mortality) rating” value in data set [3] (about 1 day-old larvae, 4000 ppm master solution diluted with 90:10 water/acetone, 15 μL per well plus 220 μL larval mixture, 3 days, mortality) was “D (No activity noticed in this bioassay)”.
For `Nc1c(F)ccc(NC(=O)c2cc(NC(=O)[C@H]3[C@H](c4cc(Br)cc(C(F)(F)F)c4)C3(Cl)Cl)ccc2Cl)c1F` (relative stereo) [F1075, trans-N-(3-Amino-2,4-difluorophenyl)-5-(3-(3-bromo-5-(trifluoromethyl)phenyl)-2,2-dichlorocyclopropane-1-carboxamido)-2-chlorobenzamide], the pest or weed control at 50 µg/cm2 in data set [1] (setting [4]) and in data set [2] (setting [5]) was 50 to 100% each time. For the same compound, in data set [3] (setting [6]), the YFM entry was “A (80–100)”.
As to `CNNC(=O)c1cc(NC(=O)[C@H]2[C@H](c3cc(Cl)cc(Cl)c3)C2(Cl)Cl)ccc1Cl.Cl` (relative stereo) [F2521, trans-2,2-Dichloro-N-(4-chloro-3-(2-methylhydrazine-1-carbonyl)phenyl)-3-(3,5-dichlorophenyl)cyclopropane-1-carboxamide hydrochloride], the pest or weed control at 50 µg/cm2 in data set [1] (setting [7]) and in data set [2] (setting [8]) was 50 to 100% throughout. In data set [3] (Yellow Fever Mosquito), the YFM rating entry was “A (80–100)”.
Consider `O=C(COC(F)F)Nc1c(F)ccc(NC(=O)c2cc(NC(=O)[C@H]3[C@H](c4ccc(F)c(C(F)(F)F)c4)C3(Cl)Cl)ccc2Cl)c1F` [F1790, 2-Chloro-5-((1R,3R)-2,2-dichloro-3-(4-fluoro-3-(trifluoromethyl)phenyl)cyclopropane-1-carboxamido)-N-(3-(2-(difluoromethoxy)acetamido)-2,4-difluorophenyl)benzamide], for which the pest or weed control at 50 µg/cm2 in data set [1] (setting [7]) and in data set [2] (setting [8]) was 50 to 100% in each case. Also, the YFM rating result in data set [3] (Yellow Fever Mosquito) is given as “A (80–100)”.
With `O=C(Nc1ccc(F)c(NC(=O)C(F)F)c1F)c1cc(NC(=O)[C@H]2[C@H](c3ccc(Cl)c(Br)c3)C2(Cl)Cl)ccc1Cl` (relative stereo) [F1359, trans-5-(3-(3-Bromo-4-chlorophenyl)-2,2-dichlorocyclopropane-1-carboxamido)-2-chloro-N-(3-(2,2-difluoroacetamido)-2,4-difluorophenyl)benzamide], the pest or weed control at 50 µg/cm2 in data set [1] (setting [4]) and in data set [2] (setting [5]) was 50 to 100% in each case. Also, the YFM entry in data set [3] (setting [6]) is “A (80–100)”.
With `O=C(NCC(F)(F)F)c1cc(NC(=O)[C@H]2[C@H](c3ccc(F)c(Cl)c3)C2(Cl)Cl)cc(C(F)(F)F)c1Cl` (relative stereo) [F2054, trans-2-Chloro-5-(2,2-dichloro-3-(3-chloro-4-fluorophenyl)cyclopropane-1-carboxamido)-N-(2,2,2-trifluoroethyl)-3-(trifluoromethyl)benzamide], the pest or weed control at 50 µg/cm2 in data set [1] (setting [7]) and in data set [2] (setting [8]) was 50 to 100% each time. Also, the YFM rating entry in data set [3] (Yellow Fever Mosquito) is “A (80–100)”.
In the case of `O=C(NCC(F)(F)F)c1cc(NC(=O)[C@H]2[C@H](c3cc(C(F)(F)F)cc(Cl)c3F)C2(Cl)Cl)ccc1Cl` (relative stereo) [F2012, trans-2-Chloro-5-(2,2-dichloro-3-(3-chloro-2-fluoro-5-(trifluoromethyl)phenyl)cyclopropane-1-carboxamido)-N-(2,2,2-trifluoroethyl)benzamide], the pest or weed control at 50 µg/cm2 in data set [1] (setting [7]) and in data set [2] (setting [8]) was 50 to 100% throughout. For the same compound, the YFM rating result in data set [3] (Yellow Fever Mosquito) is listed as “A (80–100)”.
For the compound `O=C(NCCCCNC(=O)C(F)(F)C(F)(F)F)c1cc(NC(=O)[C@H]2[C@H](c3cc(Cl)cc(Cl)c3)C2(Cl)Cl)ccc1Cl` (relative stereo) [F2098, trans-2-Chloro-5-(2,2-dichloro-3-(3,5-dichlorophenyl)cyclopropane-1-carboxamido)-N-(4-(2,2,3,3,3-pentafluoropropanamido)butyl)benzamide], the pest or weed control at 50 µg/cm2 in data set [1] (setting [7]) and in data set [2] (setting [8]) was 50 to 100% in each case. For the same compound, the YFM rating result in data set [3] (Yellow Fever Mosquito) was “B (More than 0 – Less than 80)”.
In the case of `O=C(Nc1ccc(F)c(NC(=O)C(F)(F)F)c1F)c1cc(NC(=O)[C@H]2[C@H](c3ccc(Cl)c(Cl)c3)C2(Cl)Cl)cc(F)c1F` [F1444, 5-((1R,3R)-2,2-Dichloro-3-(3,4-dichlorophenyl)cyclopropane-1-carboxamido)-N-(2,4-difluoro-3-(2,2,2-trifluoroacetamido)phenyl)-2,3-difluorobenzamide], the pest or weed control at 50 µg/cm2 in data set [1] (setting [9]) and in data set [2] (setting [10]) was 50 to 100% throughout. Also, the YFM result in data set [3] (setting [11]) is given as “A (80–100)”.
With `CC1(C(=O)Nc2c(F)ccc(NC(=O)c3cc(NC(=O)[C@H]4[C@H](c5ccc(F)c(C(F)(F)F)c5)C4(Cl)Cl)ccc3Cl)c2F)CC1(Cl)Cl` (stereo partly drawn) [F1273, 2-Chloro-N-(3-(2,2-dichloro-1-methylcyclopropane-1-carboxamido)-2,4-difluorophenyl)-5-((1R,3R)-2,2-dichloro-3-(4-fluoro-3-(trifluoromethyl)phenyl)cyclopropane-1-carboxamido)benzamide], the pest or weed control at 50 µg/cm2 in data set [1] (setting [4]) and in data set [2] (setting [5]) was 50 to 100% each time. For the same compound, in data set [3] (setting [6]), the YFM result is “A (80–100)”.
